The test system of one assay is HMGB1 binding to KAP-α1. Description: GST-KAP-α1 pull-down of HMGB1 from treated RAW 264.7 cell lysates. The following applies: GST-KAP-α1 on glutathione-Sepharose beads; WCLs of treated RAW 264.7 cells. As to the method: FIGS. 4A-4C show the binding of HMGB1 to nuclear import proteins. (A) GST-KAP-α1, -2, -3, -4, -5, -6, and -β1 fusion proteins immobilized on glutathione-Sepharose 4B beads were incubated with WCLs of RAW 264.7 cells overnight at 4° C. Sepharose-bound proteins were separated and the membrane was blotted with anti-HMGB1 and reblotted with anti-GST. WCL was loaded as an HMGB1 control (lane 1), and GST protein was used as a negative control (lane 2). (B) Six His-tagged wild type HMGB1 and boxes A (aa 1-87) and B (aa 88-162) HMGB1 proteins were purified from E. coli BL21 and identified at expected size by Coomassie blue staining. HMGB1 and GST-KAP-α1 was incubated for 2 h at 4° C., and the precipitate was blotted with anti-His for HMGB1 and reblotted with anti-GST for KAP-α1. (C) GST-KAP-α1, immobilized on glutathione-Sepharose beads, was incubated with WCLs of RAW 264.7 cells which were treated with OA, TSA, or TNF-α. The precipitates were blotted with anti-HMGB1 and reblotted with anti-GST.
Two μg of each GST-KAP protein was coupled to glutathione sepharose 4B beads and incubated with 500 μg of WCL from RAW 264.7 cells as a HMGB1 source at 4° C. overnight. […]

The subject of the next assay is HMGB1-GFP. Description: HMGB1-GFP imaging in transfected RAW 264.7 cells. It is filed as cell-based, Murine. The following applies: OA 100 nM 4 h, TSA 10 ng/mL 2 h, TNF-α 20 ng/mL 16 h. As to the method: RAW 264.7 cells (A) and human PBMo cells (B) were treated with OA (100 nM for 8 h), and immunofluorescent staining was performed to observe the HMGB1. TNF-α (20 ng/mL for 16 h) was used as a positive control cytokine. […] (C) Western blot analysis of HMGB1 protein in the culture supernatants of PBMo cells, which were from (B). (D) HMGB1 in the nucleus is transported to the cytoplasm by phosphorylation. RAW 264.7 cells were transfected with a wild type HMGB1-GFP plasmid and cultured for 24 h. And then the cells were treated with 2 μg/mL CHX for 1 h followed by OA treatment for 4 h or by TSA treatment for 2 h and green fluorescent images were observed. Bar: 10 μm.
FIGS. 6A-6E show Mutation of HMGB1 NLS sites alters subcellular distribution of HMGB1. (A) RAW 264.7 cells were transfected with wild-type and each mutant HMGB1-GFP plasmid and immunofluorescent assays were performed 24 h later without any treatment. (B, C, and D) OA (100 nM for 4 h), TSA (10 ng/mL for 2 h), and TNF-α (20 ng/mL for 16 h) were applied 24 h after transfection to observe the effect on HMGB1 nuclear export by phosphorylation, acetylation, or both. […] (E) Secretion of wild-type and each mutant HMGB1-GFP was tested 24 h after transfection by Western blotting. The culture supernatants were concentrated and blotted with anti-GFP. Bar: 10 μm. […]

The subject of the next assay is HMGB1 phosphorylation. Description: Metabolic [32P] labeling / immunoprecipitation of HMGB1 phosphorylation in RAW 264.7 cells. It is filed as cell-based, Murine. As for the experimental part:
(§1) (A) RAW 264.7 cells were treated with TNF-α (20 ng/mL for 16 h) or OA (100 nM for 8 h). The nuclear (Nu) and cytoplasmic (Cyt) proteins were separated and blotted with anti-HMGB1. (B) Metabolic [^32P] labeling of HMGB1 in RAW 264.7 cells. RAW 264.7 cells were metabolically labeled with [^32P]orthophosphate for 4 h, and stimulated with OA (100 nM), TNF-α (20 ng/mL) and LPS (100 ng/mL) for 2 or 8 h. WCLs were immunoprecipitated with rabbit anti-HMGB1 from two different vendors of BD PharMingen (BD) and Upstate Biotechnology (UP). The proteins were resolved and transferred to nitrocellulose membrane and visualized by autoradiography. (C) RAW 264.7 cells were treated with TNF-α, and WCLs were immunoprecipitated with anti-pSer, anti-pTyr, and anti-pThr and blotted with anti-HMGB1. WCL was loaded as an HMGB1 control (lane 1). Anti-pAKT was used for a control antibody (lane 3). (D) RAW 264.7 cells were treated with TNF-α for the indicated time. WCLs were immunoprecipitated with anti-HMGB1, blotted with anti-pSer and reblotted with anti-HMGB1. The same culture supernatants were concentrated, separated, and blotted with anti-HMGB1.
To identify the phosphorylated residues of the HMGB1 protein, TNF-α-treated RAW 264.7 cells were lysed with a protease inhibitor cocktail. Cell homogenates were centrifuged at 20,000 g for 15 min and precleared by incubation with protein G-Sepharose (Amersham) at 4° C. for 30 min. The precleared extracts (500 μg) were incubated with rabbit polyclonal anti-pSer, anti-pTyr and anti-pThr (all from Chemicon) and then protein G-Sepharose was added and incubated for 3 h at 4° C. […]
RAW 264.7 cells were cultured in phosphate starved condition of phosphate-free DMEM containing 10% dialyzed FBS (Gibco BRL) for 4 h and further incubated for 4 h by adding 600 μCi of [^32P]orthophosphate (Amersham Pharmacia Biotech) per mL to each dish. […] The concentration of total soluble proteins in the supernatant was quantified using the Bradford reagent (Bio-Rad). […] The gels were dried and the radioactivity was analyzed by autoradiography.

A further assay deals with HMGB1. Description: HMGB1 relocation from nucleus to cytoplasm in RAW 264.7 cells (fraction Western blot, immunofluorescence). It is filed as cell-based, Murine. Particulars: OA 100 nM for 8 h, TNF-α 20 ng/mL for 16 h. As to the method: as §1, with “(D) RAW 264.7 cells were treated with TNF-α for the indicated time. WCLs were immunoprecipitated with anti-HMGB1, blotted with anti-pSer and reblotted with anti-HMGB1. The same culture supernatants were concentrated, separated, and blotted with anti-HMGB1.” left out
To analyze the secretion of HMGB1 in the supernatants, culture media were replaced with serum-free OPTI-MEM (Gibco BRL) medium and concentrated with Amicon Centricon filtration (Millipore) after removing cell debris, and Western blot analysis was performed. […] The cells were lysed using 1% Nonidet P-40 buffer containing a protease inhibitor cocktail (Sigma), and the protein concentrations were measured by Bradford assay (Biorad) for the analysis of whole cell lysates (WCLs). […]
In general terms: Immunoblotting shows a protein as a band on a membrane.

`CC(/C=C/C(=O)NO)=C\[C@@H](C)C(=O)c1ccc(N(C)C)cc1` [TSA, trichostatin A]: the “binding of HMGB1 from treated cell lysate to KAP-α1” value in the assay on HMGB1 binding to KAP-α1 is reported as “no binding to KAP-α1”. Also, the “HMGB1-GFP (wild-type and mutants) relocation 24 h after transfection” value with HMGB1-GFP was “the wild-type and all mutant HMGB1-GFPs showed cytoplasmic relocation”.
In the case of TNF-α, the “level of phosphorylated (p-) HMGB1 (IP anti-HMGB1, blot anti-pSer)” value in the assay with HMGB1 phosphorylation (RAW 264.7 cells treated with TNF-α for the indicated time) was “increased by TNF-α in a time-dependent manner”. Moreover, in the assay on HMGB1 phosphorylation (RAW 264.7 cells, 20 ng/mL TNF-α for 16 h), the “phosphorylated amino acid residue of HMGB1 (IP anti-pSer, anti-pTyr, anti-pThr)” value is “Only serine residues of HMGB1 were phosphorylated”. Besides, the “HMGB1 phosphorylation ([32P]orthophosphate labeling, autoradiography)” value in the assay on HMGB1 phosphorylation (RAW 264.7 cells, 100 nM OA, 20 ng/mL TNF-α, 100 ng/mL LPS, 2 or 8 h) is “phosphorylated”. Also, in the assay on HMGB1-GFP, the “HMGB1-GFP (wild-type and mutants) relocation 24 h after transfection” value is listed as “The same results were observed”. In the assay on HMGB1, the “HMGB1 in the cytoplasm (nuclear/cytoplasmic fractions, Western blot)” value was “translocation of nuclear HMGB1 to the cytoplasm”.

For the origin of these results see US20080103086A1, “METHODS FOR THE TREATMENT OF DISEASES ASSOCIATED WITH THE SECRETION OF HMGB1” (priority 2006, published 2008).
